Results: US20220380375A1, “SUBSTITUTED AROMATIC FUSED RING DERIVATIVE AND COMPOSITION COMPRISING SAME, AND USE THEREOF” (Shenzhen TargetRx, Inc., priority 2019, published 2022)
Marks after values point to notes of the source that are not given here.

Experiments:
[1] = target: T1, Ret wt (Homo sapiens, UniProt P07949); assay: Inhibition of kinase, Ret wt (HTRF KinEASE-TK); assay type: biochemical
T1 construct: purchased Carna 08-159-10 ug
Method: (§1) Ret wt (Carna, Cat. No. 08-159-10 ug), RET (V804M), Active (Signalchem. Cat. No. R02—12GG), HTRF KinEASE-TK kit (Cisbio, Cat. No.62TK0PEC), CEP-32496 (MCE, Cat. No. HY-15200), ATP (Sigma. Cat. No. A7699), DMSO (Sigma, Cat. No. D8418-1L), DTT (Sigma, Cat. No. D0632), MgCl2(Sigma, Cat. No. M1028), 384-well plate (Labcyte, Cat. No. P-05525-BC).
(§2) Formulation of compound: The test compounds were dissolved in DMSO to obtain 10 mM stock solutions, which were then serially diluted 3-fold in DMSO to obtain 10 concentrations. At the time of addition, the compound was further diluted 10-fold with buffer.
(§3) In 5×kinase buffer A, Ret wt or RET V804M kinase was mixed with different concentrations of compounds prepared by pre-dilution for 10 minutes. Each concentration was tested in duplicate. The corresponding substrate and ATP were added, and reaction was performed at room temperature for 20 minutes (negative and positive controls were provided: the negative control was a blank control, and the positive control was CEP-32496 (Agerafenib)). After completion of the reaction, detection reagents (reagents in the HTRF KinEASE-TK kit) were added. After incubating for 30 minutes at room temperature, enzyme activity in the presence of various concentrations of the compounds of the present disclosure was determined by Envision microplate reader, and inhibitory activity of different concentrations of the compounds on enzyme activity was calculated. The inhibitory activity of different concentrations of the compounds on enzyme activity was fitted by Graphpad 5.0 software, and the IC50 value was calculated.

[2] = target: T2, RET V804M (Homo sapiens, UniProt P07949, V804M); assay: Inhibition of kinase, RET V804M (HTRF KinEASE-TK); assay type: biochemical
T2 construct: purchased Signalchem R02—12GG
T2 sequence (P07949 29-1114 V804M): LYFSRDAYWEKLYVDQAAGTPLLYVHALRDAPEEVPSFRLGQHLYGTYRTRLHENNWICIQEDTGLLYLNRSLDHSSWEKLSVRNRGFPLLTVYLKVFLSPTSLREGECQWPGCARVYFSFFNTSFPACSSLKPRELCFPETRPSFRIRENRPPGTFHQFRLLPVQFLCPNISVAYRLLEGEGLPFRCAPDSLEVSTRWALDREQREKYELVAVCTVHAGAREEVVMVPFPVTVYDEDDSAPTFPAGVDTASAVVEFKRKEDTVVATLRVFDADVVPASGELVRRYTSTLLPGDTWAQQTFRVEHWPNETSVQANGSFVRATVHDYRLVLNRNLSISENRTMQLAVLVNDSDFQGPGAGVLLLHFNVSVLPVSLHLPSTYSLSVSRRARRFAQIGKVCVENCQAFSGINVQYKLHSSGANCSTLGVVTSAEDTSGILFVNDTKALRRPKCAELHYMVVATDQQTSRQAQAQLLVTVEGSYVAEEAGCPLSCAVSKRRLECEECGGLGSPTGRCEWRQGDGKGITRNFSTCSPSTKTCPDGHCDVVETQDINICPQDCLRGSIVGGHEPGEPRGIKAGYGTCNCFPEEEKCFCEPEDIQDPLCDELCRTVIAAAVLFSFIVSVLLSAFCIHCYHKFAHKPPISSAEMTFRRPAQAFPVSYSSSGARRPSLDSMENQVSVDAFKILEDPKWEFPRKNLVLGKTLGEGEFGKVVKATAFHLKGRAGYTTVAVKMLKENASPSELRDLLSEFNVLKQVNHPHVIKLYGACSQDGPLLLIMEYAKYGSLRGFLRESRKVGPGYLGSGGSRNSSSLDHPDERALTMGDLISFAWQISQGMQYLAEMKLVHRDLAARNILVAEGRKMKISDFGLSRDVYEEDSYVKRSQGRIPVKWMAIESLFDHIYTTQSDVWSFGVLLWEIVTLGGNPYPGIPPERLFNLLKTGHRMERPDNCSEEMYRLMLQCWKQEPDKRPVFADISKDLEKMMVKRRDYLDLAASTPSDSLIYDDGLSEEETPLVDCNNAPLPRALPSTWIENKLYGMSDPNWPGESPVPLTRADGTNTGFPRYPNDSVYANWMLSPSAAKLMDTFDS
Method: as §1, §2, §3

[3] = test system: Ba/F3 KIF5B-RET cell line tumor model; assay: Anti-tumor effect assay in Ba/F3 KIF5B-RET cell line tumor model (allograft); assay type: in vivo, female NPSG mice; details: for Tumor volume (x ± S), Day 0 of administration: 10 mg/kg p.o. QD × 14, day 0 (baseline); for TGI (%), Day 14 of administration / Tumor volume (x ± S), Day 14 of administration: 10 mg/kg p.o. QD × 14, day 14
Excerpt: (§4) The efficacy of compounds of the present disclosure in female NPSG mouse allograft models of two B-cell lymphoma cell lines Ba/F3 KIF5B-RET and Ba/F3 KIF5B-RET^G810R was verified.
(§5) Assay animals: Female NPSG mice, 6-8 weeks old (age of mice at the time of tumor cell inoculation), weighing 18-20 g, 60 mice, purchased from Shanghai Jihui Laboratory Animal Care Co., Ltd.
(§6) Assay methods: 1) Ba/F3 KIF5B-RET and Ba/F3 KIF5B-RET^G810R cells were respectively resuscitated and Cultured in vitro, and 3×10^7 cells of each type were obtained. 2) 60 female NPSG mice aged 6-8 weeks were adaptively bred for 1 week and then weighed. 4) After inoculation, tumor volume and body weight were measured once a week. When average tumor volume reached about […], mice inoculated with each type of Ba/F3 cells were randomly divided into 7 groups according to tumor volume and body weight, with 3 mice in each group. The administration was started immediately after grouping. The date of start of administration was regarded as day 0. Informations on administration and grouping were shown in Tables 5 and 6.5) After the start of the administration, the body weight and tumor volume of mice were measured twice a week. 6) After the end of the administration, the assay was over.
(§7) Assay observation and data collection: After tumor inoculation, morbidity and death of animals were observed every working day. Daily observation included tumor growth and effects of drugs on laboratory animals, such as changes in activity, changes in feeding and drinking, weight loss, changes in appearance of hair and eye, death and other clinical symptoms. Formula for calculating tumor volume is: tumor volume (mm^3)=½×(a×b^2) (wherein a represents the long diameter and b represents the short diameter)
(§8) Relative tumor inhibition rate TGI (%): TGI %=(1−T/C)×100%. T/C % is relative tumor proliferation rate, that is, a percentage value of relative tumor volume between treatment group and control group at a certain point in time. T and C are relative tumor volume (RTV, that is, the […] tumor volume at this time point and tumor volume at day 0) of treatment group and control group at a certain point in time, respectively.
(§9) Statistical analysis: For pairwise comparison, a T-Test analysis method was used, and for comparison of three or more groups, a One-Way ANOVA method was used. For comparison of potential synergistic effects, a Two-way ANOVA was used. SPSS 24.0 was used for all data. A p value less than 0.05 was considered a significant difference.

[4] = test system: Ba/F3 KIF5B-RET^G810R cell line tumor model; assay: Anti-tumor effect assay in Ba/F3 KIF5B-RET^G810R cell line tumor model (allograft); assay type: in vivo, female NPSG mice; details: for Tumor volume (x ± S), Day 0 of administration / Tumor volume (x ± S), Day 13 of administration / TGI (%), Day 13 of administration: Ba/F3 KIF5B-RET^G810R model; for Tumor volume (x ± S), Day 0 of administration: 25 mg/kg p.o. QD × 13, day 0 (baseline); for Tumor volume (x ± S), Day 13 of administration / TGI (%), Day 13 of administration: 25 mg/kg p.o. QD × 13, day 13; for TGI (%), Day 13 of administration: TGI more than 100% = decrease in tumor volume; for relative tumor inhibition rate TGI (%): day 13 of administration, AD80 group 25 mg/kg
Excerpt: as §4, §5, §6, §7, §8, §9

[5] = Safety assay (body weight, tolerability) in Ba/F3 KIF5B-RET cell line tumor model; assay type: in vivo; details: for Number of animals at the beginning/end of assay: 10 mg/kg p.o. QD × 14; for Average weight g (x ± S), Day 0 of administration: 10 mg/kg p.o. QD × 14, day 0 (baseline); for Average weight g (x ± S), Day 14 of administration / Weight change rate (%), Day 14 of administration: 10 mg/kg p.o. QD × 14, day 14; for tolerability (weight loss, drug withdrawal, drug toxicity): during the treatment
Method: as §6, §7

[6] = Safety assay (body weight, tolerability) in Ba/F3 KIF5B-RET^G810R cell line tumor model; assay type: in vivo; details: for Number of animals at the beginning/end of assay: 25 mg/kg p.o. QD × 13; for Average weight g (x ± S), Day 0 of administration: 25 mg/kg p.o. QD × 13, day 0 (baseline); for Average weight g (x ± S), Day 13 of administration / Weight change rate (%), Day 13 of administration: 25 mg/kg p.o. QD × 13, day 13; for tolerability (weight loss, drug withdrawal, drug toxicity): during the treatment
Method: as §6, §7

T1 sequence (P07949 29-1114): as the sequence (P07949 29-1114 V804M) above, with M776V counted along it

SMILES | IC50 [1] [nM] | IC50 [2] [nM] | Tumor volume (x ± S), Day 0 of administration [3] [mm^3] | TGI (%), Day 14 of administration [3] [%] | Tumor volume (x ± S), Day 14 of administration [3] [mm^3] | Tumor volume (x ± S), Day 0 of administration [4] [mm^3] | Tumor volume (x ± S), Day 13 of administration [4] [mm^3] | TGI (%), Day 13 of administration [4] | relative tumor inhibition rate TGI (%) [4] [%] | Number of animals at the beginning/end of assay [5] | Average weight g (x ± S), Day 0 of administration [5] [g] | Average weight g (x ± S), Day 14 of administration [5] [g] | Weight change rate (%), Day 14 of administration [5] [%] | tolerability (weight loss, drug withdrawal, drug toxicity) [5] | Number of animals at the beginning/end of assay [6] | Average weight g (x ± S), Day 0 of administration [6] [g] | Average weight g (x ± S), Day 13 of administration [6] [g] | Weight change rate (%), Day 13 of administration [6] [%] | tolerability (weight loss, drug withdrawal, drug toxicity) [6]
CC(C)n1cc(-c2ccc(CC(=O)Nc3cc(C(C)(C)C(F)(F)F)on3)cc2)c2c(N)ncnc21 [Compound T-3, 2-(4-(4-amino-7-isopropyl-7H-pyrrolo[2,3-d]pyrimidin-5-yl)phenyl)-N-(5-(1,1,1-trifluoro-2-methylprop-2-yl)isoxazol-3-yl)acetamide] | ≤ 0.5 | 1 to 10 | 104 ± 10.44 | 96.3 | 153.7 ± 13.22 | 102 ± 7.77 | 132.7 ± 11.78 | 91.6% | 91.6 | 3/3 | 19.6 ± 0.84 | 21.5 ± 0.7 | 9.8 | well tolerated | 3/3 | 19.9 ± 1.18 | 23.1 ± 1.49 | 16.01 | well tolerated
CC(C)n1nc(-c2ccc(CC(=O)Nc3cc(C(C)(C)C(F)(F)F)on3)c(F)c2)c2c(N)ncnc21 [Compound T-6, 2-(4-(4-amino-1-isopropyl-1H-pyrazolo[3,4-d]pyrimidin-3-yl)-2-fluorophenyl)-N-(5-(1,1,1-trifluoro-2-methylprop-2-yl)isoxazol-3-yl)acetamide] | ≤ 0.5 | 0.5 to 1 | 104 ± 3.61 | 99.7 | 108.7 ± 31.33 | 93 ± 8.33 | 89.7 ± 4.48 | 100.9%# | 100.9 | 3/3 | 19.3 ± 0.57 | 21 ± 0.91 | 8.8 | well tolerated | 3/3 | 19.4 ± 0.66 | 22.4 ± 0.46 | 15.75 | well tolerated
